Broadly, the IC50 is the midpoint of a concentration-inhibition curve. The melting point is the temperature of the solid-liquid transition.

One series deals with MCF-10A cells. The experiment in a line: In vitro cytotoxicity against normal non-tumorigenic cells, MTT assay. The series is classed as cell-based. As to conditions: Homo sapiens, normal non-tumorigenic MCF-10A cells, read-out: IC50 (Mean ± SEM) MCF-10A. The protocol: (§1) MCF-7 (human breast cancer) cells, obtained from Sigma-Aldrich Chemie GmbH, Taufkirchen, Germany, were propagated in RPMI-1640 supplemented with 10% heat inactivated FBS, 2 mM L-glutamine, and 1% standard antibiotic solution. Cells were incubated in a 5% CO2 humidified incubator at 37 °C and passaged bi-weekly. The in vitro anti-proliferative activity of the newly synthesized derivatives was assayed using standard MTT technique. Results were expressed as IC50. Experiments were repeated at least in triplicate, to obtain good reproducibility between replicate wells with standard errors below 10%. Furthermore, the cytotoxic effects of the prepared derivatives were evaluated against normal nonmalignant cells, non-tumorigenic MCF-10A, in order to find out if the synthesized derivatives have toxicity against normal cells. Additionally, results were compared with reference compounds (cisplatin and milaplatin) as positive controls.
A general note: Tetrazolium assays rely on reduction of a dye to a coloured formazan, in cell work by metabolically active cells.

Series [1] addresses T1, p53 ubiquitination (GST-tagged HDM2) (Homo sapiens, UniProt Q00987).
T1 construct: GS4b-MDM2 RING beads were prepared as above and were used in place of the full-length MDM2; made in house; host or cells: Escherichia coli BL21
Description: In vitro p53 ubiquitination assay. The format is biochemical. As to conditions: for IC50: GST-tagged HDM2, p53, ubiquitin, E1 and E2 (UbcH5B), read-out: IC50 (Mean ± SEM) In Vitro p53 Ubiquitination. How it is done: Different prepared derivatives were evaluated for their inhibitory potential against p53 ubiquitination. The method is based on incubating different compounds with GST-tagged HDM2, immobilized on glutathione-Sepharose, p53, ubiquitin, E1 and E2 (UbcH5B) ligases. The buffer contained ATP as detailed by Gomha and Abdelaziz. The reaction products were then resolved by SDSPAGE and p53 ubiquitination and were quantified by Western blotting using an anti-p53 antibody.
Briefly, rGSH-S-transferase-tagged MDM2 (GST-MDM2) was expressed in Escherichia coli BL21 cells using 1 mM isopropyl-thio-b-D-galactoside for 3 h. The enzyme was then purified on glutathione-sepharose beads (Amersham). Beads were washed with Tris (pH 7.5). The reaction contained fluorescent ubiquitin (5 µg; Invitrogen), 50 ng mammalian E1 (Enzo), 200 ng human rUbcH5B E2 (Enzo), 200 ng His-p53 (Enzo) and buffer [50 mM Tris pH 8,2 mM dithiothreitol, 5 mM MgCl2, 2 mM adenosine triphosphate (ATP)]. The MPD-compound or control mixture was dose-titrated onto GS4b-MDM2 beads. Incubation at 37 °C was followed by shaking (1200 rpm, 1 h). The reaction was terminated with 3× sodium dodecyl sulfate sample buffer. Finally, unbound fluorescent ubiquitin was drained and the total fluorescent ubiquitin signal was measured using a plate reader (Safire).
The procedure was performed similar to the aforementioned protocol except that 5 µg unlabeled ubiquitin (Enzo) was used. Following incubation, resolving of reaction products was performed using sodium dodecyl sulfate PGE. Analysis was done by western blotting using anti-p53 DO-1. For the MDM2 RING auto-ubiquitination assay, GS4b-MDM2 RING beads were prepared as above and were used in place of the full-length MDM2.

A further series concerns the target EGFR (Homo sapiens, UniProt P00533). Description: EGFR kinase inhibition assay. The format is biochemical. As to conditions: 8 μM ATP, poly(Glu,Tyr)4:1 substrate; read-out: IC50 (Mean ± SEM) EGFR. How it is done: (§2) The EGFR and VEGFR-2 kinase activities were assayed as previously described. The assay was performed in 96-well plates pre-coated with 20 μg mL^−1 poly (Glu, Tyr)4:1 (Sigma-Aldrich Chemie GmbH, Taufkirchen, Germany) as a substrate. In each well, 85 μL of an 8 μM ATP solution and 10 μL of the compound were added at varying concentrations. Experiments were repeated three times. Reactions started with 5 μL of different kinases and incubation for 1 h at 37 °C. Plates were 3X-washed with PBS/0.1% Tween 20. Accordingly, 100 μL of anti-phosphotyrosine (PY99; 1:500 dilutions) antibody was added, and plates were incubated for another hour at room temperature. Plates were then 3X-washed, and addition of goat anti-mouse IgG horseradish peroxidase (100 μL; 1:2000 dilution) diluted in T-PBS containing 5 mg mL^−1 BSA followed. Plates were further incubated at room temperature for another hour, and then 3X-washed. Finally, 100 μL (developing solution, 0.03% H2O2, 2 mg mL^−1 o-phenylenediamine/citrate buffer, 0.1 M, pH 5.5) was added and incubation continued until color development. The reaction was stopped by 100 μL of 2M H2SO4, and the absorption was measured at 492 nm using a multiwell spectrophotometer (VERSAmax™). The inhibition rate (%) was calculated using the equation:Inhibition rate (%) = [1 − (A492/A492Control)] × 100%(1)

The next series concerns MCF-7 xenografts. Description: In vivo breast cancer mouse xenograft model. On the set-up: species or system nude mice. The protocol: The breast cancer xenograft model protocol was approved by the Institutional Animal Use and Care Committee of the University of Alabama at Birmingham (50-01-05-08B). Female athymic pathogen-free nude mice (nu/nu, 4–6 weeks) were used. Firstly, MCF-7 xenografts were initiated by implanting pellets slowly releasing estrogen for two months (1.7mg 17β-estradiol/pellet) subcutaneously in the female nude mice. After 24 h, confluent MCF-7 cells were harvested, washed two times with serum-free medium, re-suspended and injected subcutaneously (s.c.) (5 × 10^6 cells, total volume 0.2 mL) into the left inguinal area of the mice. Caliper measurement was used to measure tumor growth in two perpendicular diameters of the implant after 48 h, and its volume was determined. Mice grafted with MCF-7 were divided into different groups (7–10 mice/group). Untreated mice received the solvent only. Treated groups received different prepared derivatives as previously described.

The test system of the next series is p53 ubiquitination. Description: In vivo ubiquitination of p53 (transfected cells). As to conditions: for IC50: cells transfected with p53, MDM2, HIS-ubiquitin, exposed 6 h, read-out: IC50 (Mean ± SEM) In Vivo p53 Ubiquitination. The format is cell-based. How it is done: In vivo ubiquitination of p53 was assayed according to [38] Cells were grown for 24 h (50% confluency) before transfection of 1 µg p53, 4 µg MDM2 and 1 µg HIS-ubiquitin with Gene Juice reagent. Grown for another 20 h, cells were exposed to prepared derivatives or controls for 6 h and MG132 for 4 h, then washed and collected in PBS, where 5% of the solution was kept as an input. The remaining pelleted cells (95% after centrifugation) were lysed in 700 µL of ubiquitin buffer A (6 M guanidinium HCl, 300 mM NaCl, 50 mM phosphate pH 8.0, 100 µg/mL N-ethylmaleimide), and sonicated for 5 min at 20% amplitude. Lysates were incubated overnight with Invitrogen Dynabeads His-Tag matrix and washed once with ubiquitin buffers A, B, C and phosphate buffered saline (ubiquitin buffer B: Mix ubiquitin buffer A and ubiquitin buffer C 1:1; ubiquitin buffer C: 300 mM NaCl, 50 mM phosphate pH 8.0, 100 µg/mL N-ethylmaleimide). The washed lysates were resolved by 8% sodium dodecyl sulfate–polyacrylamide gel electrophoresis, followed by immunoblotting with a p53 (DO-1) antibody.

The target in the next series is VEGFR-2 (Homo sapiens, UniProt P35968). Description: VEGFR-2 kinase inhibition assay. The format is biochemical. As to conditions: 8 μM ATP, poly(Glu,Tyr)4:1 substrate; read-out: IC50 (Mean ± SEM) VEGFR-2. The protocol:
as §2

The subject of the next series is MCF-7 cells. The experiment in a line: In vitro cytotoxic activity, MTT assay, MCF-7. The format is cell-based, human. As to conditions: for IC50: Homo sapiens, MCF7, MTT assay, MCF-7 cell line, read-out: IC50 (Mean ± SEM) MCF-7. The protocol:
as §1

T1 sequence (Q00987 whole entry): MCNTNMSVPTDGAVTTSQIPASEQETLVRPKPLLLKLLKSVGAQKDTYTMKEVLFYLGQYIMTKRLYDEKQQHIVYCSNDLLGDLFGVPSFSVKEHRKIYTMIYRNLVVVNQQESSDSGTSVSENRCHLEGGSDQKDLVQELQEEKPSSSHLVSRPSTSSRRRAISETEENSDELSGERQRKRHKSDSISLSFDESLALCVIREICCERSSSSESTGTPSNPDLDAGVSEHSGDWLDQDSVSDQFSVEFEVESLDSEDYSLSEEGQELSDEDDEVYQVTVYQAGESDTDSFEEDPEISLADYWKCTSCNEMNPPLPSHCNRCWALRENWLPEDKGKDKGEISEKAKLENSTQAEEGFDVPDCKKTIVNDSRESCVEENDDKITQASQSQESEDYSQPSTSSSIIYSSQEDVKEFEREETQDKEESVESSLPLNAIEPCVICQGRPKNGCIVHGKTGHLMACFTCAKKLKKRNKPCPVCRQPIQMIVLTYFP
EGFR, sequence (P00533 25-1210): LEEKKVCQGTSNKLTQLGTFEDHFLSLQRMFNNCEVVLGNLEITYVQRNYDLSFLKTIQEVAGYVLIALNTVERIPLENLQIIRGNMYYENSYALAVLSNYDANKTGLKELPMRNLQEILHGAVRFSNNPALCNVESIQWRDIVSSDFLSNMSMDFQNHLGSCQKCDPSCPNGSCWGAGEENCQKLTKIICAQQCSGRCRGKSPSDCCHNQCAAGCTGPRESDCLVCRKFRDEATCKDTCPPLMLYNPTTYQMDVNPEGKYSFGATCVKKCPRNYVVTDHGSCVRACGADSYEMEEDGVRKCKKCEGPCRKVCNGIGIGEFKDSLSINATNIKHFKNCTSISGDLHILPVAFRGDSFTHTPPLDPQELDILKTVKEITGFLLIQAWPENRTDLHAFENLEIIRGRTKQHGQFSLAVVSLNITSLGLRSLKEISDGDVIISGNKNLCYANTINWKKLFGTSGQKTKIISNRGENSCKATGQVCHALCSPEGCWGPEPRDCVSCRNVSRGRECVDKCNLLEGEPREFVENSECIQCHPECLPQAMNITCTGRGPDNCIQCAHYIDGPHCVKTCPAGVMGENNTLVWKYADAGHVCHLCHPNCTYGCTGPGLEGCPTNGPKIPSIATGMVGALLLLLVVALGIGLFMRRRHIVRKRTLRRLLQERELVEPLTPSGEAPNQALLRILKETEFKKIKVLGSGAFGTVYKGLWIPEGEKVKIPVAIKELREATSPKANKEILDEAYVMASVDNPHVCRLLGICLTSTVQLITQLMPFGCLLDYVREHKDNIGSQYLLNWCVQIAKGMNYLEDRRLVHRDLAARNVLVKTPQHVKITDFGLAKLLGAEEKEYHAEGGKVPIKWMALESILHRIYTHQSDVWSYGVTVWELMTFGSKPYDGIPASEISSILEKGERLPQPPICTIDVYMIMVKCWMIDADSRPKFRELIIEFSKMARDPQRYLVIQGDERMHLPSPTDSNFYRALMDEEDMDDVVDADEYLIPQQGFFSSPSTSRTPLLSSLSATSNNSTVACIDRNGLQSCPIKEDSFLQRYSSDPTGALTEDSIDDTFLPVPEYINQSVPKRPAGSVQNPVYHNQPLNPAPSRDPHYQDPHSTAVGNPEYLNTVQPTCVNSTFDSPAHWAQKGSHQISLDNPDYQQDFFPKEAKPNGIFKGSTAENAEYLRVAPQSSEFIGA
VEGFR-2, sequence (P35968 20-1356): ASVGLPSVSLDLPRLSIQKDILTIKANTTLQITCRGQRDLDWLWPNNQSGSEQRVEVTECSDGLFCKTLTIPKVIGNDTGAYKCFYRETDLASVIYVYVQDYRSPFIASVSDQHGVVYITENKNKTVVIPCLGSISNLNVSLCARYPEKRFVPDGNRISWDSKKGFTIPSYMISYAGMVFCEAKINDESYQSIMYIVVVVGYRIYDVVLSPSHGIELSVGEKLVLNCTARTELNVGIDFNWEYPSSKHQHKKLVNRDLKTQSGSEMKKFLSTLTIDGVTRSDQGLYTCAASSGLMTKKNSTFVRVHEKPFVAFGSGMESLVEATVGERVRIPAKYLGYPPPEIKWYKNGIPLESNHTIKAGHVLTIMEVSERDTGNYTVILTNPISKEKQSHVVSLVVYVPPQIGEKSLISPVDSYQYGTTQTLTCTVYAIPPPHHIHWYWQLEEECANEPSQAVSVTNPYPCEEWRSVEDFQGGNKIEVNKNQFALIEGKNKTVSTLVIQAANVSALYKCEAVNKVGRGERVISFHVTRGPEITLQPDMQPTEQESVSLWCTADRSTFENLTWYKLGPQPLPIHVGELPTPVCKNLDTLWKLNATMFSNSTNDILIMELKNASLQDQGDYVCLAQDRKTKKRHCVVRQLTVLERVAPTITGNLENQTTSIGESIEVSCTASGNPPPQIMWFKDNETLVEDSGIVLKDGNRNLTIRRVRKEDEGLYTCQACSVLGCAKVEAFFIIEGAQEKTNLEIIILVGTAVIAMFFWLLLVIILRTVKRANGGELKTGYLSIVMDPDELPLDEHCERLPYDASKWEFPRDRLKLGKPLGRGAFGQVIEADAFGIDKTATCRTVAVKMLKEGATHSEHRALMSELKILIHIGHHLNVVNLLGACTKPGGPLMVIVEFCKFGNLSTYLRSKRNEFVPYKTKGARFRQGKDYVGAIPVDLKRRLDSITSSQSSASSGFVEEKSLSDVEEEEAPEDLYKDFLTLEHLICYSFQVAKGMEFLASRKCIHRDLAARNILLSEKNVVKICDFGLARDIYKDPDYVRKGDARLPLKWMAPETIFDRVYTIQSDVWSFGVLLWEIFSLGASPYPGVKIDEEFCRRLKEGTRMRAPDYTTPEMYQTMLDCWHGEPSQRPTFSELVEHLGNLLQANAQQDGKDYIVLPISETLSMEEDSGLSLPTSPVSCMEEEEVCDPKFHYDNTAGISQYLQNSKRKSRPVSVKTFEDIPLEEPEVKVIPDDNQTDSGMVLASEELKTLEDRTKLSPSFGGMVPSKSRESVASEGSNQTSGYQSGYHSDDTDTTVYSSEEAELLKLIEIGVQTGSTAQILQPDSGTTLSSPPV

`CC12CCC3c4ccc(O)cc4CCC3C1CC1=C2NC(=N)NC1c1ccccc1Cl` (centres unmarked) [Compound 5a, 2′-Imino-6′-(2-chlorophenyl)-estra-1(10),2,4,16(17)-tetraien-[17,16-d]-pyrimidino-3-ol]: the melting point is 286 to 288 °C. Moreover, in the series with MCF-10A cells, the IC50 amounted to 211 ± 7.53 µM. Besides, the IC50 in series [1] worked out at 16.4 ± 0.23 µM. The “fold more active than standard drug, in vitro p53 ubiquitination” value in series [1] (vs diphenyl imidazole) is recorded as 15.8 fold. At EGFR, the IC50 came to 0.086 ± 0.0032 µM. Moreover, in the series with MCF-7 xenografts (after 2 days of treatment, vs control animals), the “decrease in tumor growth” value was “about 25.36%”. Besides, the “maximal inhibition of tumor growth” value in the series on MCF-7 xenografts (after 10 days of treatment) is 91.1%. Also, the “inhibition percentage of tumor growth” value with MCF-7 xenografts (after 14 days of treatment) came to 88.7%. In addition, the IC50 in the series with p53 ubiquitination was found to be 0.22 ± 0.0043 µM. Besides, in the series with p53 ubiquitination (vs diphenyl imidazole), the “fold more active than standard drug, in vivo p53 ubiquitination” value is on record as 8.6 fold. The IC50 on VEGFR-2 turned out to be 0.027 ± 0.0012 µM. In addition, in the series with MCF-7 cells, the IC50 came to 18.38 ± 0.13 µM. In addition, in the series with MCF-7 cells (ratio of IC50 values, 5a vs 7b), the “fold more toxic than the least active compound 7b towards MCF-7” value came out at 2.5 fold.

As for `CC12CCC3c4ccc(O)cc4CCC3C1CC1C2=NN(C(N)=S)C1c1ccc(Cl)cc1` (centres unmarked) [Compound 8b, 1-Thiocarbamoyl-1′H-(2′H)-5′-(4-chlorophenyl)-estra-1(10),2,4-trien-[17,16-c]pyrazoline-3-ol], the melting point was 252 to 256 °C. Further, the IC50 with MCF-10A cells stood at 446 ± 15.4 µM. Moreover, the IC50 in series [1] turned out to be 64.6 ± 0.78 µM. Also, the IC50 at EGFR was found to be 0.177 ± 0.0041 µM. Further, the IC50 in the series with p53 ubiquitination is 0.82 ± 0.0078 µM. Besides, the IC50 at VEGFR-2 amounted to 0.053 ± 0.0023 µM. Also, the IC50 in the series on MCF-7 cells worked out at 40.4 ± 0.95 µM.

Values taken from paper PMC6385123, “Design, Synthesis, Anticancer Evaluation and Molecular Modeling of Novel Estrogen Derivatives” (Molecules, 2019).
